EC50 data for 6 molecules are collected here from patent US10131702B2, “Glucagon-GLP-1-GIP triple agonist compounds” (priority 2013, dated 2018).

Assay type in all cases: cell-based
In one assay the target is T1, human GIP R (Homo sapiens, UniProt P48546).
T1 construct: expressed in transfected cells
T1 sequence (P48546 22-466): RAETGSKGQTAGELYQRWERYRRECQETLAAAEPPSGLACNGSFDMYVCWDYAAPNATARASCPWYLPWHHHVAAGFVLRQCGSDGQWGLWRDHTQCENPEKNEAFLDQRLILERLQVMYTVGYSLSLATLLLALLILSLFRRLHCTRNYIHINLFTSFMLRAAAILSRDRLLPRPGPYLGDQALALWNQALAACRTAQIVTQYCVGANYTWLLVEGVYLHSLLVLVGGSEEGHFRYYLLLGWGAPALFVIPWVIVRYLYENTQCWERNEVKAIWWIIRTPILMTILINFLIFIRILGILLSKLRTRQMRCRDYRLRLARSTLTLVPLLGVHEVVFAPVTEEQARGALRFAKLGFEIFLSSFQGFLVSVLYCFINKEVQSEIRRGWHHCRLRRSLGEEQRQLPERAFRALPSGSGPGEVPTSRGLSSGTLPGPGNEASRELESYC
The experiment in a line: cAMP induction in HEK293 cells expressing human GIP R (AlphaScreen cAMP kit). Background: Alpha assays give light when donor and acceptor beads are brought close together.

In the next assay the target is T2, human GLP-1 R (Homo sapiens, UniProt P43220).
T2 construct: expressed in transfected cells
The experiment in a line: cAMP induction in HEK293 cells expressing human GLP-1 R (AlphaScreen cAMP kit).

The target of a further assay is T3, human GCG R (Homo sapiens, UniProt P47871).
T3 construct: expressed in transfected cells
The experiment in a line: cAMP induction in HEK293 cells expressing human GCG R (AlphaScreen cAMP kit).

Setting [1] is: GIP R (EC50 in nM), Table 2, average EC50, cAMP.
Where [2] appears, read: GIP R (EC50 in nM), Table 2b (most comprehensive data), average EC50, cAMP.
[3] abbreviates: Table 2, average EC50, cAMP, HEK293 cells expressing human GLP-1 R, read-out: GLP1 R (EC50 in nM).
Setting [4] is: Table 2b (most comprehensive data), average EC50, cAMP, HEK293 cells expressing human GLP-1 R, read-out: GLP1 R (EC50 in nM).
Setting [5] is: Table 2b (most comprehensive data), average EC50, cAMP, read-out: GIP R (EC50 in nM).
Where [6] appears, read: Table 2b (most comprehensive data), average EC50, cAMP, HEK293 cells expressing human GCG R, read-out: GCG R (EC50 in nM).

Structures are written as SMILES. Where two headings read alike, the source gives them in different places. Numbered stars: 1 amine (or outer) side, 2 acyl side, 3 side chain; on linkers, the order of the positions; unused ones are H or OH. Square brackets hold non-standard residues; d marks the D form. Side chains are listed from the residue outwards. Peptide text beside a SMILES is read from it. * marks the point of attachment. γGlu = O=C(O)[C@H](CCC(=O)[*:2])N[*:1]; Stearoyl = CCCCCCCCCCCCCCCCCC(=O)*; AEEA = NCCOCCOCC(=O)O; Aib = CC(C)(N)C(=O)O

T2 sequence (P43220 24-463): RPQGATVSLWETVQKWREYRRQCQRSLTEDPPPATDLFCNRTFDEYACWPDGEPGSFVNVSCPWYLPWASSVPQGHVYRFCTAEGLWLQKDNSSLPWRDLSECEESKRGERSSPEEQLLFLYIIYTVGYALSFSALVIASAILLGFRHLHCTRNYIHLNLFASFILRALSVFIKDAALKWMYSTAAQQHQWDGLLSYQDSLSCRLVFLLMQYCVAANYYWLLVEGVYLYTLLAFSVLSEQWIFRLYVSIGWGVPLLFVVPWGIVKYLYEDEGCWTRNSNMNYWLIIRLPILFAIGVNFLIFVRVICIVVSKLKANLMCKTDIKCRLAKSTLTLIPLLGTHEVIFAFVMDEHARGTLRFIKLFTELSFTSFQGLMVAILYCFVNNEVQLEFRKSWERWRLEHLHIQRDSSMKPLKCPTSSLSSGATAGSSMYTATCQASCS
T3 sequence (P47871 26-477): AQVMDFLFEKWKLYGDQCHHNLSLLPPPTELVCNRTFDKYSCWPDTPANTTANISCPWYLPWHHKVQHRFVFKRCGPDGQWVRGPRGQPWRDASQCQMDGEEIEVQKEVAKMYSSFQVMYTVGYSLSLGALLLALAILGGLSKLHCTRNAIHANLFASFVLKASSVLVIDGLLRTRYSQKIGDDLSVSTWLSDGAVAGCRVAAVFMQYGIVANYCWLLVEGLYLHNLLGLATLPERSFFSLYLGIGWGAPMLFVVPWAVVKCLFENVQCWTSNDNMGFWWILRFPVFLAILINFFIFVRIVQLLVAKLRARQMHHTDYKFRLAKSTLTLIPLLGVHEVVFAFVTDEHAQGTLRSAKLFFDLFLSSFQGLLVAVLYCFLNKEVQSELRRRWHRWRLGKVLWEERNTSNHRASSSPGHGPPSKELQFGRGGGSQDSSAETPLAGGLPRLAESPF
Description for human GCG R: (§1) Briefly, HEK293 cells expressing the human GIP R, GLP-1 R or GCG R (stable cell lines generated through transfection of the cDNA for human GIP R, GLP-1 R or GCG R and selection of stable clones) were seeded at 30,000 cells/well in 96-well microtiter plates coated with 0.01% poly-L-lysine, and grown for 1 day in culture in 200 μl growth medium (DMEM, 10% FCS, Penicillin (100 IU/ml), Streptomycin (100 μg/ml)). On the day of analysis, growth medium was removed and the cells were washed once with 150 μl Tyrode's buffer (Tyrode's Salts (9.6 g/l), 10 mM HEPES, pH 7.4). […] The Assay buffer was removed and cells are lysed in 80 μl Lysis buffer (0.1% w/v BSA, 5 mM HEPES, 0.3% v/v Tween-20) per well. From each well 10 μl of lysed cells were transferred to a 384-well plate and mixed with 15 μl bead-mix (1 Unit/15 μl anti-cAMP Acceptor Beads, 1 Unit/15 μl Donor Beads, and 1 Unit/15 μl Biotinylated cAMP in Assay Buffer). The plates were mixed and incubated in the dark for an hour at room temperature before measuring using an Envision™ plate reader (Perkin-Elmer).
(§2) The resulting cAMP curves were plotted as absolute cAMP concentrations (nM) over log (test compound concentration) and analyzed using the curve fitting program XLfit.
(§3) Parameters calculated to describe both the potency as well as the agonistic activity of each test compound on the receptors were:
(§4) EC50, a concentration resulting in a half-maximal elevation of cAMP levels, reflecting the potency of the test compound.
Description for human GLP-1 R: as §1, §2, §3, §4

For `CC(C)C[C@H](NC(=O)[C@H](CC(C)C)NC(=O)[C@H](Cc1c[nH]c2ccccc12)NC(=O)[C@H](CCC(=O)O)NC(=O)[C@@H](NC(=O)[C@H](Cc1ccccc1)NC(=O)[C@H](CC(=O)O)NC(=O)[C@H](Cc1c[nH]cn1)NC(=O)[C@H](C)NC(=O)[C@H](C)NC(=O)[C@H](CCCCN)NC(=O)[C@H](CO)NC(=O)[C@H](CCC(=O)O)NC(=O)[C@H](CC(C)C)NC(=O)[C@H](Cc1ccc(O)cc1)NC(=O)[C@H](CCCCN)NC(=O)[C@H](CO)NC(=O)[C@H](Cc1ccc(O)cc1)NC(=O)[C@H](CC(=O)O)NC(=O)[C@H](CO)NC(=O)[C@@H](NC(=O)[C@H](Cc1ccccc1)NC(=O)[C@@H](NC(=O)CNC(=O)[C@H](CCC(N)=O)NC(=O)C(C)(C)NC(=O)[C@@H](N)Cc1ccc(O)cc1)[C@@H](C)O)[C@@H](C)O)C(C)C)C(=O)N[C@@H](CO)C(=O)N[C@@H](C)C(N)=O` [Compound 8] (HELM PEPTIDE1{Y.[Aib].Q.G.T.F.T.S.D.Y.S.K.Y.L.E.S.K.A.A.H.D.F.V.E.W.L.L.S.A.[am]}$$$$V2.0), the EC50 – broadly, the concentration at which the effect is half-maximal – at human GIP R (setting [1]) was 0.2 nM; on human GIP R (setting [2]), 0.015 nM; at human GLP-1 R (setting [3]) it was 0.015 nM; on human GCG R, 0.042 nM.

`CC[C@H](C)[C@H](NC(=O)[C@H](CO)NC(=O)[C@H](Cc1ccc(O)cc1)NC(=O)[C@H](CC(=O)O)NC(=O)[C@H](CO)NC(=O)[C@@H](NC(=O)[C@H](Cc1ccccc1)NC(=O)[C@@H](NC(=O)CNC(=O)[C@H](CCC(N)=O)NC(=O)C(C)(C)NC(=O)[C@@H](N)Cc1ccc(O)cc1)[C@@H](C)O)[C@@H](C)O)C(=O)N[C@@H](Cc1ccc(O)cc1)C(=O)N[C@@H](CC(C)C)C(=O)N[C@@H](CC(=O)O)C(=O)N[C@@H](CCCCN)C(=O)N[C@@H](CCCCN)C(=O)N[C@@H](C)C(=O)N[C@@H](C)C(=O)N[C@@H](Cc1c[nH]cn1)C(=O)N[C@@H](CC(=O)O)C(=O)N[C@@H](Cc1ccccc1)C(=O)N[C@H](C(=O)N[C@@H](CCC(=O)O)C(=O)N[C@@H](Cc1c[nH]c2ccccc12)C(=O)N[C@@H](CC(C)C)C(=O)N[C@@H](CC(C)C)C(=O)N[C@@H](CO)C(=O)N[C@@H](C)C(N)=O)C(C)C` [Compound 19] (HELM PEPTIDE1{Y.[Aib].Q.G.T.F.T.S.D.Y.S.I.Y.L.D.K.K.A.A.H.D.F.V.E.W.L.L.S.A.[am]}$$$$V2.0): the EC50 at human GIP R (setting [1]) was 0.032 nM; on human GIP R (setting [2]), 0.013 nM; at human GLP-1 R (setting [3]) it was 0.013 nM; at human GLP-1 R (setting [4]), 0.024 nM; on human GCG R, 0.024 nM.

`CC(C)C[C@H](NC(=O)[C@H](CC(C)C)NC(=O)[C@H](Cc1c[nH]c2ccccc12)NC(=O)[C@H](CCC(=O)O)NC(=O)[C@@H](NC(=O)[C@H](Cc1ccccc1)NC(=O)[C@H](CC(=O)O)NC(=O)[C@H](CCCNC(=N)N)NC(=O)[C@H](C)NC(=O)[C@H](C)NC(=O)[C@H](CCCCN)NC(=O)[C@H](CO)NC(=O)[C@H](CC(=O)O)NC(=O)[C@H](CC(C)C)NC(=O)[C@H](Cc1ccc(O)cc1)NC(=O)[C@H](CCCCN)NC(=O)[C@H](CO)NC(=O)[C@H](Cc1ccc(O)cc1)NC(=O)[C@H](CC(=O)O)NC(=O)[C@H](CO)NC(=O)[C@@H](NC(=O)[C@H](Cc1ccccc1)NC(=O)[C@@H](NC(=O)CNC(=O)[C@H](CCC(N)=O)NC(=O)C(C)(C)NC(=O)[C@@H](N)Cc1ccc(O)cc1)[C@@H](C)O)[C@@H](C)O)C(C)C)C(=O)N[C@@H](CO)C(=O)N[C@@H](C)C(N)=O` [Compound 6] (HELM PEPTIDE1{Y.[Aib].Q.G.T.F.T.S.D.Y.S.K.Y.L.D.S.K.A.A.R.D.F.V.E.W.L.L.S.A.[am]}$$$$V2.0): the EC50 on human GIP R (setting [1]) was 0.34 nM; at human GIP R (setting [2]) it was 0.01 nM; on human GLP-1 R (setting [3]), 0.0095 nM; at human GCG R, 0.018 nM.

For `CC[C@H](C)[C@H](NC(=O)[C@H](CO)NC(=O)[C@H](Cc1ccc(O)cc1)NC(=O)[C@H](CC(=O)O)NC(=O)[C@H](CO)NC(=O)[C@@H](NC(=O)[C@H](Cc1ccccc1)NC(=O)[C@@H](NC(=O)CNC(=O)[C@H](CCC(N)=O)NC(=O)C(C)(C)NC(=O)[C@@H](N)Cc1ccc(O)cc1)[C@@H](C)O)[C@@H](C)O)C(=O)N[C@@H](Cc1ccc(O)cc1)C(=O)N[C@@H](CC(C)C)C(=O)N[C@@H](CCC(=O)O)C(=O)N[C@@H](CO)C(=O)N[C@@H](CCCCN)C(=O)N[C@@H](C)C(=O)N[C@@H](C)C(=O)N[C@@H](Cc1c[nH]cn1)C(=O)N[C@@H](CC(=O)O)C(=O)N[C@@H](Cc1ccccc1)C(=O)N[C@H](C(=O)N[C@@H](CCC(=O)O)C(=O)N[C@@H](Cc1c[nH]c2ccccc12)C(=O)N[C@@H](CC(C)C)C(=O)N[C@@H](CC(C)C)C(=O)N[C@@H](CO)C(=O)N[C@@H](C)C(N)=O)C(C)C` [Compound 18] (HELM PEPTIDE1{Y.[Aib].Q.G.T.F.T.S.D.Y.S.I.Y.L.E.S.K.A.A.H.D.F.V.E.W.L.L.S.A.[am]}$$$$V2.0), the EC50 came to 0.07 nM at human GIP R (setting [1]), 0.021 nM on human GLP-1 R (setting [3]), 0.15 nM on human GLP-1 R (setting [4]) and 0.15 nM at human GCG R.

For the molecule `CC[C@H](C)[C@H](NC(=O)[C@H](CO)NC(=O)[C@H](Cc1ccc(O)cc1)NC(=O)[C@H](CC(=O)O)NC(=O)[C@H](CO)NC(=O)[C@@H](NC(=O)[C@H](Cc1ccccc1)NC(=O)[C@@H](NC(=O)CNC(=O)[C@H](CCC(N)=O)NC(=O)C(C)(C)NC(=O)[C@@H](N)Cc1ccc(O)cc1)[C@@H](C)O)[C@@H](C)O)C(=O)N[C@@H](Cc1ccc(O)cc1)C(=O)N[C@@H](CC(C)C)C(=O)N[C@@H](CC(=O)O)C(=O)N[C@@H](CCCCN)C(=O)N[C@@H](CCCCNC(=O)CC[C@H](NC(=O)CCCCCCCCCCCCCCCCC(=O)O)C(=O)O)C(=O)N[C@@H](C)C(=O)N[C@@H](CCC(N)=O)C(=O)N[C@@H](CCCNC(=N)N)C(=O)N[C@@H](C)C(=O)N[C@@H](Cc1ccccc1)C(=O)N[C@H](C(=O)N[C@@H](CCC(=O)O)C(=O)N[C@@H](Cc1c[nH]c2ccccc12)C(=O)N[C@@H](CC(C)C)C(=O)N[C@@H](CC(C)C)C(=O)N[C@@H](C)C(=O)N[C@@H](CCC(N)=O)C(=O)NCC(=O)N1CCC[C@H]1C(=O)N[C@@H](CO)C(=O)N[C@@H](CO)C(=O)NCC(=O)N[C@@H](C)C(=O)N1CCC[C@H]1C(=O)N1CCC[C@H]1C(=O)N1CCC[C@H]1C(=O)N[C@@H](CO)C(N)=O)C(C)C` [Compound 34] (HELM PEPTIDE1{Y.[Aib].Q.G.T.F.T.S.D.Y.S.I.Y.L.D.K.K.A.Q.R.A.F.V.E.W.L.L.A.Q.G.P.S.S.G.A.P.P.P.S.[am]}|PEPTIDE2{[O=C(O)CCCCCCCCCCCCCCCCC(=O)[*:2]].[gGlu]}$PEPTIDE1,PEPTIDE2,17:R3-2:R2$$$V2.0), the EC50 worked out at 0.007 nM on human GIP R (setting [5]), 0.0066 nM at human GLP-1 R and 0.11 nM on human GCG R (setting [6]).

Regarding `CCCCCCCCCCCCCCCCCC(=O)N[C@@H](CCC(=O)NCCOCCOCC(=O)NCCOCCOCC(=O)NCCCC[C@H](NC(=O)[C@H](CCCCN)NC(=O)[C@H](CCC(=O)O)NC(=O)[C@H](CC(C)C)NC(=O)[C@H](Cc1ccc(O)cc1)NC(=O)[C@@H](NC(=O)[C@H](CO)NC(=O)[C@H](Cc1ccc(O)cc1)NC(=O)[C@H](CC(=O)O)NC(=O)[C@H](CO)NC(=O)[C@@H](NC(=O)[C@H](Cc1ccccc1)NC(=O)[C@@H](NC(=O)CNC(=O)[C@H](CCC(N)=O)NC(=O)C(C)(C)NC(=O)[C@@H](N)Cc1ccc(O)cc1)[C@@H](C)O)[C@@H](C)O)[C@@H](C)CC)C(=O)N[C@@H](C)C(=O)N[C@@H](C)C(=O)N[C@@H](CCCCN)C(=O)N[C@@H](CCC(=O)O)C(=O)N[C@@H](Cc1ccccc1)C(=O)N[C@H](C(=O)N[C@@H](CCC(=O)O)C(=O)N[C@@H](Cc1c[nH]c2ccccc12)C(=O)N[C@@H](CC(C)C)C(=O)N[C@@H](CC(C)C)C(=O)N[C@@H](CO)C(=O)N[C@@H](C)C(=O)NCC(=O)N1CCC[C@H]1C(=O)N[C@@H](CO)C(=O)N[C@@H](CO)C(=O)NCC(=O)N[C@@H](C)C(=O)N1CCC[C@H]1C(=O)N1CCC[C@H]1C(=O)N1CCC[C@H]1C(=O)N[C@@H](CO)C(N)=O)C(C)C)C(=O)O` [Compound 37] (H-Y[Aib]QGTFTSDYSIYLEKK([AEEA-AEEA-γGlu-Stearoyl])AAKEFVEWLLSAGPSSGAPPPS-NH2), the values for the EC50 at human GIP R (setting [5]) and at human GCG R (setting [6]) were 0.018 nM and 0.014 nM, respectively.
